In US11072585B2 (PharmAkea, Inc., priority 2015, dated 2021) one finds IC50 data, which are given here for 31 compounds.

The target of this assay is human LOXL2 (Homo sapiens (Human), UniProt Q9Y4K0). Nature of the assay: Human LOXL2 amine oxidase activity assay (Amplex Red). It counts as biochemical. As to conditions: concentrated conditioned media from CHO cells stably expressing human LOXL2; 2 h at 37° C. with compound; DAP substrate. The method, then: Example B-1: Human LOXL2 Amine Oxidase Activity Assay
Chain of human LOXL2 (Q9Y4K0 26-774): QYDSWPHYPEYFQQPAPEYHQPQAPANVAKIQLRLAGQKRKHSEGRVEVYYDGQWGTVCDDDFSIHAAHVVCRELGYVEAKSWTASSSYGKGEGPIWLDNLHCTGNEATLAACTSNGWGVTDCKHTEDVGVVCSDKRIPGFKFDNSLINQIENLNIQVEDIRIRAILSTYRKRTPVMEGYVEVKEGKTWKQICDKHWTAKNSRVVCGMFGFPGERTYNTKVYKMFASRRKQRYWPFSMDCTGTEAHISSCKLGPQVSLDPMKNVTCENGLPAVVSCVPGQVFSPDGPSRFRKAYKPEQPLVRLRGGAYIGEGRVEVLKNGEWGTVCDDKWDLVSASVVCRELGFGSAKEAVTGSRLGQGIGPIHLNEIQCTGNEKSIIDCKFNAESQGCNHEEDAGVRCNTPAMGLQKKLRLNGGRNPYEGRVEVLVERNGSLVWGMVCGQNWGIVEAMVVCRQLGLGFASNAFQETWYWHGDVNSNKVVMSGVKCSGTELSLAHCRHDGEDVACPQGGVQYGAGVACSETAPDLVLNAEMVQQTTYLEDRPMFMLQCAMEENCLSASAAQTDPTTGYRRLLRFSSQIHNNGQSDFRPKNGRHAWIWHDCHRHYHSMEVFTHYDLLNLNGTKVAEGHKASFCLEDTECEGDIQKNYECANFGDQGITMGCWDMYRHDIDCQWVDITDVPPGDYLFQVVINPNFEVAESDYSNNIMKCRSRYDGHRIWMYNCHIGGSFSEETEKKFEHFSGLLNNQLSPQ
LOXL2 amine oxidase activity is evaluated by measuring Amplex Red fluorescence using 10-20× concentrated conditioned media from CHO cells stably expressing human LOXL2. To assay for amine oxidase activity, 10 μL of the concentrated conditioned media is incubated with 2 μL of test compound in DMSO and 73 μL Assay Buffer (50 mM Borate Buffer, pH8) for 2 h at 37° C. After the 2 h incubation, 5 ul of 10 mM 1,5-Diaminopentane (DAP) diluted in Assay Buffer and 10 μl of Amplex Red Mix (8.5 μl Assay Buffer+0.5 μl of 10 mM Amplex Red+1 μl of 500 U/ml Horseradish Peroxidase) are added and the plate mixed and immediately placed on the FlexStaion for fluorescence measurements. Fluorescence is read in kinetic mode every 2 min for 1 hour at excitation=544 and emission=590. The amine oxidase activity is calculated from the slope of the linear portion of the curve.

Where a name gives a salt, the structure may show the parent alone.

What is called IC50 is the point on the concentration scale where inhibition reaches its midpoint.

Turning to `NCc1cc(Oc2cccc(C(=O)Nc3ccccc3N)c2)nc(C(F)(F)F)c1` [Compound 1-225, 3-((4-(Aminomethyl)-6-(trifluoromethyl)pyridin-2-yl)oxy)-N-(2-aminophenyl)benzamide hydrochloride], the half-maximal inhibitory concentration (IC50) was under 300 nM.
Regarding `NCc1cc(Oc2cccc(C(=O)N3CC[C@@H](CO)C3)c2)nc(C(F)(F)F)c1` [Compound 1-26, (R)-(3-((4-(Aminomethyl)-6-(trifluoromethyl)pyridin-2-yl)oxy)phenyl)(3-(hydroxymethyl)pyrrolidin-1-yl)methanone hydrochloride], the IC50 is under 300 nM.
The result for `NCc1cc(OCc2cccc(C(=O)N3C[C@@H](O)[C@H](F)C3)c2)nc(C(F)(F)F)c1` (racemic) [Compound 1-36, Racemic-trans-(3-(((4-(aminomethyl)-6-(trifluoromethyl)pyridin-2-yl)oxy)methyl)phenyl)(3-fluoro-4-hydroxypyrrolidin-1-yl)methanone hydrochloride] reads under 300 nM; that for `NCc1cc(Oc2cccc(C(=O)NC3COC3)c2)nc(C(F)(F)F)c1` [Compound 1-200, 3-((4-(Aminomethyl)-6-(trifluoromethyl)pyridin-2-yl)oxy)-N-(oxetan-3-yl)benzamide trifluoroacetate], under 300 nM.
Take `NCc1cc(Oc2cccc(C(=O)NCc3ccc(F)cc3)c2)nc(C(F)(F)F)c1` [Compound 1-9, 3-((4-(Aminomethyl)-6-(trifluoromethyl)pyridin-2-yl)oxy)-N-(4-fluorobenzyl)benzamide hydrochloride]: the IC50 was under 300 nM.
For `NCc1cc(Oc2cccc(C(=O)Nc3ncco3)c2)nc(C(F)(F)F)c1` [Compound 1-227, 3-((4-(Aminomethyl)-6-(trifluoromethyl)pyridin-2-yl)oxy)-N-(oxazol-2-yl)benzamide hydrochloride], the half-maximal inhibitory concentration (IC50) was under 300 nM.
On to `NCc1cc(Oc2cc(O)cc(C(=O)N3C[C@@H](O)[C@H](F)C3)c2)nc(C(F)(F)F)c1` (racemic) [Compound 1-230, Racemic-trans-(3-((4-(aminomethyl)-6-(trifluoromethyl)pyridin-2-yl)oxy)-5-hydroxyphenyl)(3-fluoro-4-hydroxypyrrolidin-1-yl)methanone hydrochloride], for which the IC50 was under 300 nM.
`NCc1cc(Oc2cccc(C(=O)N3CC[C@H](O)C3)c2)nc(C(F)(F)F)c1` [Compound 1-17, (S)-(3-((4-(Aminomethyl)-6-(trifluoromethyl)pyridin-2-yl)oxy)phenyl)(3-hydroxypyrrolidin-1-yl)methanone hydrochloride]: the IC50 was under 300 nM.
For `C#C[C@H](CC(=O)OC)NC(=O)c1cccc(Oc2cc(CN)cc(C(F)(F)F)n2)c1` [Compound 1-220, Methyl (S)-3-(3-((4-(aminomethyl)-6-(trifluoromethyl)pyridin-2-yl)oxy)benzamido)pent-4-ynoate] the value was under 300 nM; for `NCc1cc(-n2ccccc2=O)nc(C(F)(F)F)c1` [Compound 1-161, 4′-(Aminomethyl)-6′-(trifluoromethyl)-2H-[1,2′-bipyridin]-2-one hydrochloride], over 1000 nM.
The result for “N′-(4-(Aminomethyl)-6-(trifluoromethyl)pyridin-2-yl)-N^3-phenylisophthalamide trifluoroacetate [Compound 1-240]” reads under 300 nM; that for `NCc1cc(Oc2cccc(C(=O)NCC3CCC(=O)N3)c2)nc(C(F)(F)F)c1` (racemic) [Compound 1-29, Racemic-3-((4-(aminomethyl)-6-(trifluoromethyl)pyridin-2-yl)oxy)-N-((5-oxopyrrolidin-2-yl)methyl)benzamide hydrochloride], under 300 nM; that for `NCc1cc(O[C@H]2CCN(C(=O)Nc3ccccc3)C2)nc(C(F)(F)F)c1` [Compound 1-40, (S)-3-((4-(Aminomethyl)-6-(trifluoromethyl)pyridin-2-yl)oxy)-N-phenylpyrrolidine-1-carboxamide trifluoroacetate], under 300 nM.
The result for `NCc1cc(Sc2cccc(C(=O)Nc3ccccc3)c2)nc(C(F)(F)F)c1` [Compound 1-68, 3-((4-(Aminomethyl)-6-(trifluoromethyl)pyridin-2-yl)thio)-N-phenylbenzamide hydrochloride] reads under 300 nM; that for `CCc1ccc(NC(=O)c2cccc(Oc3cc(CN)cc(C(F)(F)F)n3)c2)cc1` [Compound 1-246, 3-((4-(Aminomethyl)-6-(trifluoromethyl)pyridin-2-yl)oxy)-N-(4-ethylphenyl)benzamide hydrochloride], under 300 nM.
Regarding `NCc1cc(OCC2CCN(C(=O)Nc3ccccc3)CC2)nc(C(F)(F)F)c1` [Compound 1-42, 4-(((4-(Aminomethyl)-6-(trifluoromethyl)pyridin-2-yl)oxy)methyl)-N-phenylpiperidine-1-carboxamide trifluoroacetate], the 50% inhibitory concentration (IC50) was under 300 nM.
For `NCc1cc(Oc2cccc3[nH]ccc23)nc(C(F)(F)F)c1` [Compound 1-58, (2-((1H-Indol-4-yl)oxy)-6-(trifluoromethyl)pyridin-4-yl)methanamine] the value was under 300 nM; for `NCc1cc(OC[C@H]2CCCN(C(=O)Nc3ccccc3)C2)nc(C(F)(F)F)c1` [Compound 1-45, (S)-3-(((4-(Aminomethyl)-6-(trifluoromethyl)pyridin-2-yl)oxy)methyl)-N-phenylpiperidine-1-carboxamide trifluoroacetate], 300 to 1000 nM; for `NCc1cc(Oc2cccc(C(=O)NCCO)c2)nc(C(F)(F)F)c1` [Compound 1-16, 3-((4-(Aminomethyl)-6-(trifluoromethyl)pyridin-2-yl)oxy)-N-(2-hydroxyethyl)benzamide hydrochloride], under 300 nM.
The result for `NCc1cc(Oc2cccc(C(=O)N3CC(n4cccn4)C3)c2)nc(C(F)(F)F)c1` [Compound 1-12, (3-(1H-Pyrazol-1-yl)azetidin-1-yl)(3-((4-(aminomethyl)-6-(trifluoromethyl)pyridin-2-yl)oxy)phenyl)methanone trifluoroacetate] reads under 300 nM; that for `Cn1cc(-n2ccc3c(Oc4cc(CN)cc(C(F)(F)F)n4)cccc32)cn1` [Compound 1-37, (2-((1-(1-Methyl-1H-pyrazol-4-yl)-1H-indol-4-yl)oxy)-6-(trifluoromethyl)pyridin-4-yl) methanamine hydrochloride], under 300 nM.
The result for `CC(C)(O)CNC(=O)c1cccc(Oc2cc(CN)cc(C(F)(F)F)n2)c1` [Compound 1-32, 3-((4-(Aminomethyl)-6-(trifluoromethyl)pyridin-2-yl)oxy)-N-(2-hydroxy-2-methylpropyl)benzamide hydrochloride] reads under 300 nM; that for `NCc1cc(Oc2cccc(C(=O)N3CC[C@@H](O)C3)c2)nc(C(F)(F)F)c1` [Compound 1-18, (R)-(3-((4-(Aminomethyl)-6-(trifluoromethyl)pyridin-2-yl)oxy)phenyl)(3-hydroxypyrrolidin-1-yl)methanone hydrochloride], under 300 nM; that for `NCc1cc(Oc2cccc(C(=O)Nc3nnco3)c2)nc(C(F)(F)F)c1` [Compound 1-228, 3-((4-(Aminomethyl)-6-(trifluoromethyl)pyridin-2-yl)oxy)-N-(1,3,4-oxadiazol-2-yl)benzamide hydrochloride], under 300 nM.
As for `NCc1cc(Oc2cccc(C(=O)NCc3cc4ccccc4s3)c2)nc(C(F)(F)F)c1` [Compound 1-10, 3-((4-(Aminomethyl)-6-(trifluoromethyl)pyridin-2-yl)oxy)-N-(benzo[b]thiophen-2-ylmethyl)benzamide hydrochloride], the IC50 was under 300 nM.
As to `NCc1cc(Oc2cccc(C(=O)Nc3cncnc3)c2)nc(C(F)(F)F)c1` [Compound 1-226, 3-((4-(Aminomethyl)-6-(trifluoromethyl)pyridin-2-yl)oxy)-N-(pyrimidin-5-yl)benzamide hydrochloride], the IC50 is under 300 nM.
For `NCc1cc(Oc2cccc(C(=O)N3CCC(CO)CC3)c2)nc(C(F)(F)F)c1` [Compound 1-204, (3-((4-(Aminomethyl)-6-(trifluoromethyl)pyridin-2-yl)oxy)phenyl)(4-(hydroxymethyl)piperidin-1-yl)methanone hydrochloride] the value was under 300 nM; for `Cc1cc(=O)n(Cc2cc(CN)cc(C(F)(F)F)n2)c(=O)n1CCO` [Compound 1-135, 3-((4-(Aminomethyl)-6-(trifluoromethyl)pyridin-2-yl)methyl)-1-(2-hydroxyethyl)-6-methylpyrimidine-2,4(1H,3H)-dione hydrochloride], over 1000 nM; for `CONC(=O)c1cccc(Oc2cc(CN)cc(C(F)(F)F)n2)c1` [Compound 1-219, 3-((4-(Aminomethyl)-6-(trifluoromethyl)pyridin-2-yl)oxy)-N-methoxybenzamide hydrochloride], under 300 nM.
For `Cl.[2H]C([2H])(N)c1cc(Oc2cccc(C(=O)Nc3ccccc3)c2)nc(C(F)(F)F)c1` [Compound 1-8, 3-((4-(Aminomethyl-d2)-6-(trifluoromethyl)pyridin-2-yl)oxy)-N-phenylbenzamide hydrochloride] the value was under 300 nM; for `N#CC1CN(C(=O)c2cccc(Oc3cc(CN)cc(C(F)(F)F)n3)c2)C1` [Compound 1-199, 1-(3-((4-(Aminomethyl)-6-(trifluoromethyl)pyridin-2-yl)oxy)benzoyl)azetidine-3-carbonitrile trifluoroacetate], under 300 nM.
